Legend:
[1] = tested on: fructose-induced hyperlipidemic rats; test: Hypotriglyceridemic activity in fructose-induced hyperlipidemic rats; type: in vivo, Sprague Dawley rats; conditions: serum, 30 mg/kg p.o. once a day for 7 days, blood 2 hours after final administration; for inhibition in vivo at 30 mg/kg: Rattus norvegicus, po, read-out: Triglyceride (% Reduction)
Protocol: Hypotriglyceridemic Activity in Fructose-induced Hyperlipidemic Rats
The compounds were tested for a hypotriglyceridemic activity in fructose-induced hyperlipidemic rats in accordance with the method described in Nippon Yakurigaku Zasshi, 92 (3), 175-180 (1988). […] 75% fructose solution as drinking water was given to the animals for 7 days, while normal water was given to the intact groups ad libitum. During the experimental period the test compounds suspended in 3% gum arabic were given to the test group orally once a day in a daily dose of 30 mg/kg. The vehicle solution was given to the control group and the intact group. After 2 hours from the final administration, blood was collected from the abdominal aorta under ether anesthesia, and levels of total cholesterol and triglyceride in the serum were measured. The reduction rate (%) was calculated according to the following equation: [formula]
Above experimental model is well known as a model of hypertriglicemia.

mice = test: Acute toxicity, single oral dose; type: in vivo; conditions: oral 2000 mg/kg, observed daily for 2 weeks
Text: The animals were observed daily for 2 weeks after the administration.

[2] = tested on: high cholesterol-fed hamsters; test: Lipid lowering effects in high cholesterol-fed hamsters; type: in vivo, Male Syrian hamsters; conditions: serum
Protocol: Lipid Lowering Effects in High Cholesterol-fed Hamsters
The compounds were tested for lipid lowering effects in high cholesterol-fed hamsters in accordance with the method described in Jpn Pharmacol Ther, 23 (suppl 4), s1047-1053 (1995). Male Syrian hamsters were fed the high cholesterol diet supplemented with 1% cholesterol and 10% coconut oil for 3 weeks. Before drug administration, blood was collected from the orbital venous plexus under ether anesthesia, and a serum total cholesterol level was measured. […] The designated doses of the compound of Example 1 or Bezafibrate were administrated to test groups and the vehicle solution was given to the control group orally once a day for 7 days under the high cholesterol diet feeding. The intact group of animals were fed normal diet. After 4 hours of the final administration, blood was collected by cardiac puncture, and the total cholesterol and triglyceride levels in the serum were determined by the enzymatic method.
The reduction rate (%) was calculated according to the following equation: [formula]

[3] = tested on: Salmonella typhimurium TA100 and TA98; test: Mutagenicity test (reverse mutation test); type: cell-based; conditions: absence or presence of S9 mix
Text: The mutagenicity of the compound of Example 1 was examined by a reverse mutation test using Salmonella typhimurium TA100 and TA98 in the absence or presence of S9 mix.

[4] = Table 4 (Example 65), 15 mg/kg p.o.
[5] = 15 mg/kg orally once a day for 7 days, minus = increase
[6] = 30 mg/kg orally once a day for 7 days, minus = increase
[7] = 60 mg/kg orally once a day for 7 days, minus = increase
[8] = 120 mg/kg orally once a day for 7 days, minus = increase

N#CN=C1NC(=O)C(=Cc2cccc(OCCc3ccccc3)c2)S1 [Example 12, 2-(N-Cyanoimino)-5-(3-phenethyloxybenzylidene)thiazolidin-4-one]
inhibition in vivo at 30 mg/kg [1]: 59%

CCC(Oc1ccc(C)cc1)c1ccccc1 (stereo not shown) [Example 32]
inhibition in vivo at 30 mg/kg [1]: 47%

N#CN=C1NC(=O)C(=Cc2ccc(OCCc3ccccc3)cc2)S1 [Example 10, 2-(N-Cyanoimino)-5-(4-phenethyloxybenzylidene)thiazolidin-4-one]
single dose toxicity: deaths (mice): no deaths were observed | inhibition in vivo at 30 mg/kg [1]: 39%

N#CN=C1NC(=O)C(=Cc2ccc(-c3cc4cc(Cl)ccc4o3)cc2)S1 [Example 14, 2-(N-Cyanoimino)-5-[4-(5-chlorobenzofuran-2-yl)benzylidene]thiazolidin-4-one]
Total cholesterol (% Reduction) [2, 4]: 11% | Triglyceride (% Reduction) [2, 4]: 24% | inhibition in vivo at 30 mg/kg [1]: 36%

N#CN=C1NC(=O)C(=Cc2ccc(COCc3ccccc3)cc2)S1 [Example 3, 2-(N-Cyanoimino)-5-[4-(benzyloxymethyl)benzylidene]thiazolidin-4-one]
Total cholesterol (% Reduction) [2, 4]: 16% | Triglyceride (% Reduction) [2, 4]: 17% | inhibition in vivo at 30 mg/kg [1]: 64%

N#CN=C1NC(=O)C(=Cc2ccc(Oc3ccccc3)cc2)S1 [Example 22, 2-(N-Cyanoimino)-5-(4-phenoxybenzylidene)thiazolidin-4-one]
inhibition in vivo at 30 mg/kg [1]: 65%

N#CN=C1NC(=O)C(=Cc2ccc(Sc3ccccc3)cc2)S1 [Example 7, 2-(N-Cyanoimino)-5-(4-phenylthiobenzylidene)thiazolidin-4-one]
Total cholesterol (% Reduction) [2, 4]: 18% | Triglyceride (% Reduction) [2, 4]: 12% | inhibition in vivo at 30 mg/kg [1]: 60%

N#CN=C1NC(=O)C(=Cc2ccc(Oc3ccc(Cl)cc3)cc2)S1 [Example 6, 2-(N-Cyanoimino)-5-[4-(4-chlorophenoxy)benzylidene]thiazolidin-4-one]
inhibition in vivo at 30 mg/kg [1]: 84%

N#CN=C1NC(=O)/C(=C\c2ccc(C=Cc3ccccc3)cc2)S1 [Example 1, 2-(N-Cyanoimino)-5-[(E)-4-stylylbenzylidene]thiazolidin-4-one]
Total cholesterol (% Reduction) [2, 5]: 26% | Triglyceride (% Reduction) [2, 5]: 60% | Total cholesterol (% Reduction) [2, 6]: 25% | Triglyceride (% Reduction) [2, 6]: 62% | Total cholesterol (% Reduction) [2, 7]: 29% | Triglyceride (% Reduction) [2, 7]: 69% | Total cholesterol (% Reduction) [2, 8]: 41% | Triglyceride (% Reduction) [2, 8]: 80% | single dose toxicity: deaths (mice): no deaths were observed | mutagenicity (number of revertant colonies) [3]: not mutagenic | Triglyceride (% Reduction) [1]: 47%

N#CN=C1NC(=O)C(=Cc2ccccc2OCCc2ccccc2)S1 [Example 21, 2-(N-Cyanoimino)-5-(2-phenethyloxybenzylidene)thiazolidin-4-one]
inhibition in vivo at 30 mg/kg [1]: 48%

CC(COc1ccc(C=C2SC(=NC#N)NC2=O)cc1)c1ccccc1 (stereo not shown) [Example 11, 2-(N-Cyanoimino)-5-[4-(2-phenylpropoxy)benzylidene]thiazolidin-4-one]
inhibition in vivo at 30 mg/kg [1]: 62%

N#CN=C1NC(=O)C(=Cc2cccc(Oc3ccccc3)c2)S1 [Example 16, 2-(N-Cyanoimino)-5-(3-phenoxybenzylidene)thiazolidin-4-one]
inhibition in vivo at 30 mg/kg [1]: 54%

CC(C)(Oc1ccc(CCNC(=O)c2ccc(Cl)cc2)cc1)C(=O)O [Bezafibrate, reference compound]
Total cholesterol (% Reduction) [2, 6]: −5% | Triglyceride (% Reduction) [2, 6]: −21% | Total cholesterol (% Reduction) [2, 7]: −0% | Triglyceride (% Reduction) [2, 7]: −18% | Total cholesterol (% Reduction) [2, 8]: 20% | Triglyceride (% Reduction) [2, 8]: 16%

N#CN=C1NC(=O)C(=Cc2ccc(OCc3ccc4c(c3)OCO4)cc2)S1 [Example 17, 2-(N-Cyanoimino)-5-[4-(1,3-benzodioxol-5-ylmethoxy)benzylidene]thiazolidin-4-one]
inhibition in vivo at 30 mg/kg [1]: 37%

N#CN=C1NC(=O)C(=Cc2ccc(OCc3ccccc3)cc2)S1 [Example 13, 2-(N-Cyanoimino)-5-(4-benzyloxybenzylidene)thiazolidin-4-one]
inhibition in vivo at 30 mg/kg [1]: 55%

N#CN=C1NC(=O)C(=Cc2ccc(OCc3ccc(Cl)cc3)cc2)S1 [Example 19, 2-(N-Cyanoimino)-5-[4-(4-chlorobenzyloxy)benzylidene]thiazolidin-4-one]
inhibition in vivo at 30 mg/kg [1]: 38%

N#CN=C1NC(=O)/C(=C\c2ccc(C=Cc3ccccc3F)cc2)S1 [Example 8, 2-(N-Cyanoimino)-5-[(E)-4-(2-fluorostylyl)benzylidene]thiazolidin-4-one]
Triglyceride (% Reduction) [1]: 47%

CC(=Cc1ccccc1)c1ccc(/C=C2/SC(=NC#N)NC2=O)cc1 [Example 2, 2-(N-Cyanoimino)-5-[(E)-4-(a-methylstylyl)benzylidene]thiazolidin-4-one]
Total cholesterol (% Reduction) [2, 4]: 27% | Triglyceride (% Reduction) [2, 4]: 57% | Triglyceride (% Reduction) [1]: 67%

CC(=Cc1ccc(/C=C2/SC(=NC#N)NC2=O)cc1)c1ccccc1 [Example 4, 2-(N-Cyanoimino)-5-[(E)-4-(b-methylstylyl)benzylidene]thiazolidin-4-one]
Triglyceride (% Reduction) [1]: 42%

COc1ccc(C=Cc2ccc(/C=C3/SC(=NC#N)NC3=O)cc2)cc1 [Example 15, 2-(N-Cyanoimino)-5-[(E)-4-(4-methoxystylyl)benzylidene]thiazolidin-4-one]
Total cholesterol (% Reduction) [2, 4]: 32% | Triglyceride (% Reduction) [2, 4]: 61% | Triglyceride (% Reduction) [1]: 47%

Cc1ccc(C)c(Oc2ccc(C=C3SC(=NC#N)NC3=O)cc2)c1 [Example 9, 2-(N-Cyanoimino)-5-[4-(2,5-dimethylphenoxy)benzylidene]thiazolidin-4-one]
Total cholesterol (% Reduction) [2, 4]: 15% | Triglyceride (% Reduction) [2, 4]: 15% | inhibition in vivo at 30 mg/kg [1]: 49%

From patent US6380229B1, “2-(N-cyanoimino)thiazolidin-4-one derivatives” (Fujimoto Co., Ltd., priority 2001, dated 2002)
